Assay results from PubChem BioAssay AID2060887 (Molecular Pharmacology Branch, DTP, NCI, 2025).

Tested on: 782815-120-R-J1-PDC complex spheroid viability
Assay: Anticancer human tumor 782815-120-R-J1-PDC patient-derived colon adenocarcinoma cell line growth inhibition [RAS]
Settings: for IC50: curve of first compound; for viability, T/C: stronger effect = lower value
Method in brief: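 Multi-cell-type spheroids: tumor cells plus HUVEC endothelial cells and mesenchymal stem cells. RAS-pathway inhibitors were combined with targeted agents, each dosed in half-log steps down from clinical Cmax, or from 10 microM when Cmax was unknown.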

[1] = second compound 0.000949 µM, first compound 0.00316 µM
[2] = second compound 0.000949 µM, first compound 0.01 µM
[3] = second compound 0.000949 µM, first compound 0.0316 µM
[4] = second compound 0.000949 µM, first compound 0.1 µM
[5] = second compound 0.003 µM, first compound 0.00316 µM
[6] = second compound 0.003 µM, first compound 0.01 µM
[7] = second compound 0.003 µM, first compound 0.0316 µM
[8] = second compound 0.003 µM, first compound 0.1 µM
[9] = second compound 0.00949 µM, first compound 0.00316 µM
[10] = second compound 0.00949 µM, first compound 0.01 µM
[11] = second compound 0.00949 µM, first compound 0.0316 µM
[12] = second compound 0.00949 µM, first compound 0.1 µM
[13] = second compound 0.03 µM, first compound 0.00316 µM
[14] = second compound 0.03 µM, first compound 0.01 µM
[15] = second compound 0.03 µM, first compound 0.0316 µM
[16] = second compound 0.03 µM, first compound 0.1 µM
[17] = second compound 0.0949 µM, first compound 0.00316 µM
[18] = second compound 0.0949 µM, first compound 0.01 µM
[19] = second compound 0.0949 µM, first compound 0.0316 µM
[20] = second compound 0.0949 µM, first compound 0.1 µM
[21] = second compound 0.3 µM, first compound 0.00316 µM
[22] = second compound 0.3 µM, first compound 0.01 µM
[23] = second compound 0.3 µM, first compound 0.0316 µM
[24] = second compound 0.3 µM, first compound 0.1 µM
[25] = second compound 0.000949 µM, first compound 0.316 µM
[26] = second compound 0.000949 µM, first compound 1 µM
[27] = second compound 0.000949 µM, first compound 3.16 µM
[28] = second compound 0.000949 µM, first compound 10 µM
[29] = second compound 0.003 µM, first compound 0.316 µM
[30] = second compound 0.003 µM, first compound 1 µM
[31] = second compound 0.003 µM, first compound 3.16 µM
[32] = second compound 0.003 µM, first compound 10 µM
[33] = second compound 0.00949 µM, first compound 0.316 µM
[34] = second compound 0.00949 µM, first compound 1 µM
[35] = second compound 0.00949 µM, first compound 3.16 µM
[36] = second compound 0.00949 µM, first compound 10 µM
[37] = second compound 0.03 µM, first compound 0.316 µM
[38] = second compound 0.03 µM, first compound 1 µM
[39] = second compound 0.03 µM, first compound 3.16 µM
[40] = second compound 0.03 µM, first compound 10 µM
[41] = second compound 0.0949 µM, first compound 0.316 µM
[42] = second compound 0.0949 µM, first compound 1 µM
[43] = second compound 0.0949 µM, first compound 3.16 µM
[44] = second compound 0.0949 µM, first compound 10 µM
[45] = second compound 0.3 µM, first compound 0.316 µM
[46] = second compound 0.3 µM, first compound 1 µM
[47] = second compound 0.3 µM, first compound 3.16 µM
[48] = second compound 0.3 µM, first compound 10 µM
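Also: spheroids exposed to compounds for 7 days before reading.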
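For viability, T/C in this document: 100% = DMSO vehicle control viability.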

CC(C)n1nc(-c2ccc3oc(N)nc3c2)c2c(N)ncnc21 + CCn1c(-c2cc(N3CCN(C)CC3)cnc2C(C)OC)c2c3cc(ccc31)-c1csc(n1)CC(NC(=O)C1CC1C)C(=O)N1CCCC(N1)C(=O)OCC(C)(C)C2
IC50 (second compound 0.000949 µM): > 100 nM | IC50 (second compound 0.003 µM): 32.6 nM | IC50 (second compound 0.00949 µM): < 0.316 nM | IC50 (second compound 0.03 µM): < 0.316 nM | IC50 (second compound 0.0949 µM): < 0.316 nM | IC50 (second compound 0.3 µM): < 0.316 nM | viability, T/C (second compound 0.000949 µM, first compound 0.000316 µM): 79.2% | viability, T/C (second compound 0.000949 µM, first compound 0.001 µM): 71.7% | viability, T/C [1]: 70.3% | viability, T/C [2]: 71.4% | viability, T/C [3]: 65.5% | viability, T/C [4]: 65.9% | viability, T/C (second compound 0.003 µM, first compound 0.000316 µM): 64.2% | viability, T/C (second compound 0.003 µM, first compound 0.001 µM): 57.5% | viability, T/C [5]: 59.6% | viability, T/C [6]: 52.9% | viability, T/C [7]: 53.2% | viability, T/C [8]: 40.9% | viability, T/C (second compound 0.00949 µM, first compound 0.000316 µM): 36.3% | viability, T/C (second compound 0.00949 µM, first compound 0.001 µM): 34.2% | viability, T/C [9]: 35.9% | viability, T/C [10]: 29% | viability, T/C [11]: 27.7% | viability, T/C [12]: 23.7% | viability, T/C (second compound 0.03 µM, first compound 0.000316 µM): 19.4% | viability, T/C (second compound 0.03 µM, first compound 0.001 µM): 19.6% | viability, T/C [13]: 20.6% | viability, T/C [14]: 17% | viability, T/C [15]: 14.6% | viability, T/C [16]: 10.7% | viability, T/C (second compound 0.0949 µM, first compound 0.000316 µM): 15.4% | viability, T/C (second compound 0.0949 µM, first compound 0.001 µM): 16.2% | viability, T/C [17]: 14.8% | viability, T/C [18]: 14.2% | viability, T/C [19]: 9.96% | viability, T/C [20]: 6.66% | viability, T/C (second compound 0.3 µM, first compound 0.000316 µM): 15.2% | viability, T/C (second compound 0.3 µM, first compound 0.001 µM): 15.5% | viability, T/C [21]: 12.6% | viability, T/C [22]: 12.4% | viability, T/C [23]: 8.16% | viability, T/C [24]: 4.66%

CC1(O)CCCC1n1c(=O)c(C(F)F)cc2cnc(NC3CCN(S(C)(=O)=O)CC3)nc21 (stereo not drawn) + CCn1c(-c2cc(N3CCN(C)CC3)cnc2C(C)OC)c2c3cc(ccc31)-c1csc(n1)CC(NC(=O)C1CC1C)C(=O)N1CCCC(N1)C(=O)OCC(C)(C)C2
IC50 (second compound 0.000949 µM): 3340 nM | IC50 (second compound 0.003 µM): < 31.6 nM | IC50 (second compound 0.00949 µM): < 31.6 nM | IC50 (second compound 0.03 µM): < 31.6 nM | IC50 (second compound 0.0949 µM): < 31.6 nM | IC50 (second compound 0.3 µM): < 31.6 nM | viability, T/C [3]: 58.6% | viability, T/C [4]: 48.5% | viability, T/C [25]: 45% | viability, T/C [26]: 53.4% | viability, T/C [27]: 52.9% | viability, T/C [28]: 17% | viability, T/C [7]: 40.2% | viability, T/C [8]: 45.4% | viability, T/C [29]: 41.3% | viability, T/C [30]: 41.8% | viability, T/C [31]: 39.1% | viability, T/C [32]: 15.1% | viability, T/C [11]: 26.1% | viability, T/C [12]: 28.3% | viability, T/C [33]: 22.4% | viability, T/C [34]: 26.3% | viability, T/C [35]: 30% | viability, T/C [36]: 8.61% | viability, T/C [15]: 16.6% | viability, T/C [16]: 17.6% | viability, T/C [37]: 17.4% | viability, T/C [38]: 15.8% | viability, T/C [39]: 22.4% | viability, T/C [40]: 4.67% | viability, T/C [19]: 12.4% | viability, T/C [20]: 13.8% | viability, T/C [41]: 13.6% | viability, T/C [42]: 13.5% | viability, T/C [43]: 18.5% | viability, T/C [44]: 5.05% | viability, T/C [23]: 14.8% | viability, T/C [24]: 12.7% | viability, T/C [45]: 13.9% | viability, T/C [46]: 15% | viability, T/C [47]: 18.2% | viability, T/C [48]: 4.68%

CCN1CCN(Cc2ccc(Nc3ncc(F)c(-c4cc(F)c5nc(C)n(C(C)C)c5c4)n3)nc2)CC1 + CCn1c(-c2cc(N3CCN(C)CC3)cnc2C(C)OC)c2c3cc(ccc31)-c1csc(n1)CC(NC(=O)C1CC1C)C(=O)N1CCCC(N1)C(=O)OCC(C)(C)C2
IC50 (second compound 0.000949 µM): > 1000 nM | IC50 (second compound 0.003 µM): > 1000 nM | IC50 (second compound 0.00949 µM): < 3.16 nM | IC50 (second compound 0.03 µM): < 3.16 nM | IC50 (second compound 0.0949 µM): < 3.16 nM | IC50 (second compound 0.3 µM): < 3.16 nM | viability, T/C [1]: 75.8% | viability, T/C [2]: 88% | viability, T/C [3]: 92.3% | viability, T/C [4]: 84.9% | viability, T/C [25]: 94.6% | viability, T/C [26]: 114% | viability, T/C [5]: 58.6% | viability, T/C [6]: 59.5% | viability, T/C [7]: 57.9% | viability, T/C [8]: 59.7% | viability, T/C [29]: 62.6% | viability, T/C [30]: 64% | viability, T/C [9]: 34.3% | viability, T/C [10]: 36.4% | viability, T/C [11]: 34.4% | viability, T/C [12]: 39.4% | viability, T/C [33]: 34.8% | viability, T/C [34]: 32.5% | viability, T/C [13]: 20.2% | viability, T/C [14]: 21.9% | viability, T/C [15]: 18.5% | viability, T/C [16]: 18% | viability, T/C [37]: 20.3% | viability, T/C [38]: 20.8% | viability, T/C [17]: 15.2% | viability, T/C [18]: 15.7% | viability, T/C [19]: 14.5% | viability, T/C [20]: 17% | viability, T/C [41]: 19.3% | viability, T/C [42]: 17.1% | viability, T/C [21]: 15.6% | viability, T/C [22]: 14.8% | viability, T/C [23]: 13.6% | viability, T/C [24]: 13.3% | viability, T/C [45]: 13.2% | viability, T/C [46]: 18.2%

C[C@@H](NC(=O)c1ncnc(N)c1Cl)c1ncc(C(=O)Nc2cc(C(F)(F)F)c(Cl)cn2)s1 + CCn1c(-c2cc(N3CCN(C)CC3)cnc2C(C)OC)c2c3cc(ccc31)-c1csc(n1)CC(NC(=O)C1CC1C)C(=O)N1CCCC(N1)C(=O)OCC(C)(C)C2
IC50 (second compound 0.000949 µM): > 10000 nM | IC50 (second compound 0.003 µM): > 10000 nM | IC50 (second compound 0.00949 µM): < 31.6 nM | IC50 (second compound 0.03 µM): < 31.6 nM | IC50 (second compound 0.0949 µM): < 31.6 nM | IC50 (second compound 0.3 µM): < 31.6 nM | viability, T/C [3]: 82.2% | viability, T/C [4]: 95.5% | viability, T/C [25]: 76.9% | viability, T/C [26]: 73.4% | viability, T/C [27]: 58.8% | viability, T/C [28]: 66.8% | viability, T/C [7]: 74.1% | viability, T/C [8]: 69.4% | viability, T/C [29]: 62.9% | viability, T/C [30]: 60.5% | viability, T/C [31]: 55.1% | viability, T/C [32]: 54.7% | viability, T/C [11]: 47.9% | viability, T/C [12]: 50.3% | viability, T/C [33]: 47.7% | viability, T/C [34]: 46.6% | viability, T/C [35]: 47% | viability, T/C [36]: 44.6% | viability, T/C [15]: 25.8% | viability, T/C [16]: 33% | viability, T/C [37]: 32% | viability, T/C [38]: 31.9% | viability, T/C [39]: 37.6% | viability, T/C [40]: 35.9% | viability, T/C [19]: 19.7% | viability, T/C [20]: 23.8% | viability, T/C [41]: 25.3% | viability, T/C [42]: 27.1% | viability, T/C [43]: 30.8% | viability, T/C [44]: 27.6% | viability, T/C [23]: 18.6% | viability, T/C [24]: 20.7% | viability, T/C [45]: 23.1% | viability, T/C [46]: 21.9% | viability, T/C [47]: 26.4% | viability, T/C [48]: 27.9%
